Conditions: 101.33 kPa, Liquid; for speed of sound: Pulse-echo method; for mass density: Vibrating tube method

CCCCC(=O)[O-].C[NH2+]CCO [2-hydroxy-N-methylethanaminium pentanoate]
Conditions	mass density [kg/m3]	speed of sound [m/s]	viscosity [mPa·s]
278.15 K	1029.68	1616.6	–
278.4 K	1029.52	1615.6	–
278.65 K	1029.35	1614.7	–
278.9 K	1029.18	1613.8	–
279.15 K	1029.01	1612.8	–
279.4 K	1028.85	1611.9	–
279.65 K	1028.68	1611	–
279.9 K	1028.51	1610.1	–
280.15 K	1028.35	1609.1	–
280.4 K	1028.18	1608.2	–
280.65 K	1028.01	1607.3	–
280.9 K	1027.85	1606.4	–
281.15 K	1027.68	1605.5	–
281.4 K	1027.51	1604.6	–
281.65 K	1027.34	1603.7	–
281.9 K	1027.18	1602.8	–
282.15 K	1027.01	1601.9	–
282.4 K	1026.84	1601	–
282.65 K	1026.67	1600.1	–
282.9 K	1026.51	1599.2	–
283.15 K	1026.34	1598.3	–
283.4 K	1026.17	1597.5	–
283.65 K	1026.01	1596.6	–
283.9 K	1025.84	1595.7	–
284.15 K	1025.67	1594.8	–
284.4 K	1025.5	1593.9	–
284.65 K	1025.34	1593.1	–
284.9 K	1025.17	1592.2	–
285.15 K	1025	1591.3	–
285.4 K	1024.83	1590.5	–
285.65 K	1024.66	1589.6	–
285.9 K	1024.5	1588.8	–
286.15 K	1024.33	1587.9	–
286.4 K	1024.16	1587.1	–
286.65 K	1023.99	1586.2	–
286.9 K	1023.83	1585.4	–
287.15 K	1023.66	1584.5	–
287.4 K	1023.49	1583.7	–
287.65 K	1023.32	1582.8	–
287.9 K	1023.15	1582	–
288.15 K	1022.99	1581.2	450.93
288.4 K	1022.82	1580.3	–
288.65 K	1022.65	1579.5	–
288.9 K	1022.48	1578.7	–
289.15 K	1022.31	1577.8	–
289.4 K	1022.14	1577	–
289.65 K	1021.97	1576.2	–
289.9 K	1021.81	1575.3	–
290.15 K	1021.64	1574.5	–
290.4 K	1021.47	1573.7	–
290.65 K	1021.3	1572.9	368.78
290.9 K	1021.13	1572	–
291.15 K	1020.96	1571.2	–
291.4 K	1020.79	1570.4	–
291.65 K	1020.62	1569.6	–
291.9 K	1020.45	1568.8	–
292.15 K	1020.28	1568	–
292.4 K	1020.12	1567.2	–
292.65 K	1019.95	1566.3	–
292.9 K	1019.78	1565.5	–
293.15 K	1019.61	1564.7	319.63
293.4 K	1019.44	1563.9	–
293.65 K	1019.27	1563.1	–
293.9 K	1019.1	1562.3	–
294.15 K	1018.93	1561.5	–
294.4 K	1018.76	1560.7	–
294.65 K	1018.59	1559.9	–
294.9 K	1018.42	1559.1	–
295.15 K	1018.25	1558.3	–
295.4 K	1018.08	1557.5	–
295.65 K	1017.91	1556.7	273.03
295.9 K	1017.74	1555.9	–
296.15 K	1017.57	1555.1	–
296.4 K	1017.4	1554.3	–
296.65 K	1017.23	1553.5	–
296.9 K	1017.06	1552.7	–
297.15 K	1016.89	1551.9	–
297.4 K	1016.72	1551.1	–
297.65 K	1016.55	1550.3	–
297.9 K	1016.38	1549.6	–
298.15 K	1016.21	1548.8	234.44
298.4 K	1016.03	1548	–
298.65 K	1015.86	1547.2	–
298.9 K	1015.69	1546.4	–
299.15 K	1015.52	1545.6	–
299.4 K	1015.35	1544.8	–
299.65 K	1015.19	1544	–
299.9 K	1015.02	1543.3	–
300.15 K	1014.85	1542.5	–
300.4 K	1014.69	1541.7	–
300.65 K	1014.52	1540.9	205.32
300.9 K	1014.36	1540.1	–
301.15 K	1014.19	1539.3	–
301.4 K	1014.03	1538.5	–
301.65 K	1013.86	1537.8	–
301.9 K	1013.7	1537	–
302.15 K	1013.53	1536.2	–
302.4 K	1013.36	1535.4	–
302.65 K	1013.2	1534.6	–
302.9 K	1013.03	1533.9	–
303.15 K	1012.86	1533.1	175.84
303.4 K	1012.7	1532.3	–
303.65 K	1012.53	1531.5	–
303.9 K	1012.37	1530.7	–
304.15 K	1012.2	1530	–
304.4 K	1012.03	1529.2	–
304.65 K	1011.87	1528.4	–
304.91 K	1011.7	1527.6	–
305.15 K	1011.53	1526.8	–
305.4 K	1011.37	1526.1	–
305.65 K	1011.19	1525.3	147.42
305.9 K	1011.03	1524.5	–
306.15 K	1010.86	1523.8	–
306.4 K	1010.69	1523	–
306.65 K	1010.52	1522.2	–
306.9 K	1010.36	1521.5	–
307.15 K	1010.19	1520.7	–
307.4 K	1010.02	1519.9	–
307.65 K	1009.85	1519.1	–
307.9 K	1009.68	1518.4	–

— the NIST ThermoML archive (doi:10.1021/je900550v)
